The target in one series is T1, METTL3/14 (Homo sapiens, UniProt Q86U44).
T1 construct: purchased active motif 31570
Nature of the series: METTL3/14 methyltransferase activity assay (HTRF). In kind it is biochemical. The note with it: 10 concentrations, 3-fold dilution from 10 µM. The gist of the method: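 METTL3/14 preincubated with compound (10-point 3-fold series from 10 µM final top) 10 min at 25°C, then biotinylated substrate plus SAM for 60 min. Methylation read by HTRF with YTHDF1, streptavidin-Tb and anti-Flag acceptor after 60 min at 25°C.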
A general note: TR-FRET usually uses a lanthanide donor and a delayed reading to cut background.

In another series the test system is Kasumi-1 cells. Nature of the series: Kasumi-1 cell inhibitory activity (CellTiter-Glo, 5 days). Particulars: Homo sapiens, 120 h, 5 days incubation, CellTiter-Glo luminescence. In kind it is cell-based. Here is the method: Test compounds were dissolved in DMSO to prep are a 250×final concentration solution. The initial concentration was 10 µM with 3-fold dilution, resulting in a total of ten concentration points. 4 µL of the compound solution was added to 96 µL of cell culture medium to dilute it to 10×the final concentration. On the first day, Kasumi-1 cells (purchased from Precedo) were suspended in cell culture medium at the desired density, 90 µL of the cell suspension was added to a 96-well plate, and 10 µL of 10×compound solution was added for incubation, with a final DMSO concentration of 0.4% in each well. Incubated at 37 °C, 5% CO2 for 5 days. Before measurement after 5 days, the test plate was placed at room temperature, 50 µL of CellTiter-Glo® reagent (purchased from Promega, Cat. No. G7573) was added, mixed on a shaker for 2 minutes to lyse the cells, and incubated at room temperature for 10 minutes to stabilize the […] signal. Luminescence values were recorded using Paradigm, and the response-concentration curve was fitted with Graphpad Pr ism 8.0 to calculate IC50values. The results of each compound are shown in Table2, where A indicates <100nM, B indicates 100-1000nM, and C indicates >1000nM. [formula]
For orientation: ATP-based viability assays read luminescence as a measure of living cells.

Series [1] can be described thus: Rat pharmacokinetic test, intravenous injection. In kind it is in vivo. The note with it: male, SD, plasma, rats, 2 mg/kg, average of 3 rats. As to the method: 3.1 Experimental Animals: Male SD rats, weighing 190-230 g, 3 rats per compound 3.2 Experimental Design: All animals were fasted overnight (10-14 hours) the day before admin istration and fed 4 hours after admin istration. For intravenous injection, the drug vehicle was 5% DMA + 5% Solutol + 90% Saline (DMA: dimethylacetamide; Solutol: polyethyleneglycol-15-hydroxystearate; Saline: normal saline), with a dosage of 2 mg/kg and an admin istration concentration of 1 mg/mL. Blood samples were collected via the jugular vein at 5 min, 15 min, 30 min, 1 h, 2 h, 4 h, 6 h, 8 h, and 24 h after admin istration. Approximately 0.25 mL of each sample was collected, anticoagulated with EDTA-K2, placed on ice after collection, and centrifuged to separate plasma within 1 hour (6000 g, 3 min, 2-8°C). Plasma samples were stored in a - 80°Crefrigerator before analys is.
3.3 Result Analys is:Collected samples were detected using LC-MS/MS method. Pharmacokinetic parameters were calculated from blood drug concentration data at different time points using Phoenix WinNonlin 8.2.0 to obtain the average values of in vivo clearance (CL) and AUC0-t. Table 3 CL and AUC of test compounds after intravenous injection in rats

Structures are written as SMILES. A value given as a limit tells only on which side of the number the result lay.

T1 sequence (Q86U44 whole entry): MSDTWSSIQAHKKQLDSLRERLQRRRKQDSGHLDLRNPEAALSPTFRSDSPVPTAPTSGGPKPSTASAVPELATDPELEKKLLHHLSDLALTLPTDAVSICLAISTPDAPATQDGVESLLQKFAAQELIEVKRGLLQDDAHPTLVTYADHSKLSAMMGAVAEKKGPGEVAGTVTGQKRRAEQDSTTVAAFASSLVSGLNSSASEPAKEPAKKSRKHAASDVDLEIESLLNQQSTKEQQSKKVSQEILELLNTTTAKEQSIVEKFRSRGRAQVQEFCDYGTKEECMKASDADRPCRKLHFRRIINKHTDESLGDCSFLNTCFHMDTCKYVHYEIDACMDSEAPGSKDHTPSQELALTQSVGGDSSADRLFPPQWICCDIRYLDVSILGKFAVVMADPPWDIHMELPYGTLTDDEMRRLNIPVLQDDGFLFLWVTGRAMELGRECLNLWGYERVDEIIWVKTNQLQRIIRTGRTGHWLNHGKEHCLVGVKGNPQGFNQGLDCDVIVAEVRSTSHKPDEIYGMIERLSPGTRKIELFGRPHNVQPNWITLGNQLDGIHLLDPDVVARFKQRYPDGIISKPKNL
T1 sequence (Q9HCE5 whole entry partner): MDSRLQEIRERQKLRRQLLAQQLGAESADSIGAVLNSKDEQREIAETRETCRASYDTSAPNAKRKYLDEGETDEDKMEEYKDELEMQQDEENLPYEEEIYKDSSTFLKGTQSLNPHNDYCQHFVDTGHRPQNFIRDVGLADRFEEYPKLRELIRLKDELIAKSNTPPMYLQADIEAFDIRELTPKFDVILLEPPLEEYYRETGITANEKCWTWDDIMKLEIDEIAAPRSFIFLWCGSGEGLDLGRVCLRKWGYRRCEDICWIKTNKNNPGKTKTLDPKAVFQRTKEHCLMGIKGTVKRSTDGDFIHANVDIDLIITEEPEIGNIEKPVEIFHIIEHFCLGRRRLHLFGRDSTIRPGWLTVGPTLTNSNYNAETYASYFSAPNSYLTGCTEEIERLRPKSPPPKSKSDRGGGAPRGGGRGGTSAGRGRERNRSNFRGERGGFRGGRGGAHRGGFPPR

A word on the IC50: it is the point on the concentration scale where inhibition reaches its midpoint. Read a low IC50 as greater potency. For orientation: AUC(0-t) means the area under the concentration-time curve up to a stated or last time point. As a reminder, the clearance is the rate of elimination divided by the concentration. A high value points to efficient removal. As to `[2H]C([2H])(NCc1cc2cc(F)c(CNC(=O)c3cc(=O)n4cc5c(cc4n3)OCO5)cc2[nH]1)C1CCC1` [Example 88, N-((2-(((Cyclobutylmethyl-d2)amino)methyl)-5-fluoro-1H-indol-6-yl)methyl)-8-oxo-8H-[1,3]dioxolo[2',3':4,5]pyrido[1,2-a]pyrimidine-6-carboxamide], the IC50 on METTL3/14 is under 10 nM. Also, the IC50 with Kasumi-1 cells was under 100 nM. Besides, in series [1], the AUC(0-t) turned out to be 1710 ng·h/mL and the clearance is 19.1 mL/min/kg.

As for `[2H]C([2H])(NCc1cc2cc(F)c(CNC(=O)c3cc(=O)n4cc5c(cc4n3)OCO5)cc2[nH]1)C12CC(F)(C1)C2` [Example 89, N-((5-Fluoro-2-((((3-fluorobicyclo[1.1.1]pentan-1-yl)methyl-d2)amino)methyl)-1H-indol-6-yl)methyl)-8-oxo-8H-[1,3]dioxolo[2',3':4,5]pyrido[1,2-a]pyrimidine-6-carboxamide], the IC50 at METTL3/14 was under 10 nM. The compound also returned an IC50 in the series with Kasumi-1 cells of under 100 nM. In series [1], this compound gave an AUC(0-t) of 1210 ng·h/mL and a clearance of 28.1 mL/min/kg.

Regarding `[2H]C([2H])(NCc1cc2cc(F)c(CNC(=O)c3cc(=O)n4cc5c(cc4n3)OCCO5)cc2[nH]1)C12CC(F)(C1)C2` [Example 94, N-((5-fluoro-2-((((3-fluorobicyclo[1.1.1]pentan-1-yl)methyl-d2)amino)methyl)-1H-indol-6-yl)methyl)-9-oxo-2,3-dihydro-9H-[1,4]dioxino[2',3':4,5]pyrido[1,2-a]pyrimidine-7-carboxamide], the IC50 against METTL3/14 was under 10 nM. The IC50 with Kasumi-1 cells was under 100 nM. Also, in series [1], the AUC(0-t) came to 1120 ng·h/mL and the clearance is 28.5 mL/min/kg.
